Assay results published in patent US8242118B2, “Arylsulfonamide derivatives for use as CCR3 antagonists in the treatment of inflammatory and immunological disorders” (Axikin Pharmaceuticals Inc., priority 2001, dated 2012).

How the values were obtained:
Human CCR3 = target: T1, Human CCR3 (Homo sapiens, UniProt P51677); experiment: Receptor binding assay (RBA), [125I]-eotaxin; settings: human CCR3-transformed K562 cells, 0.1 nM [125I]-eotaxin; compounds of about 40 to 90% purity; read-out: Activity grade RBA (IC50 class)
T1 construct: The cloned CCR3 cDNA was constructed with pcDNA3 vector and transfected into a IC562 cell line; expressed in transfected cells
T1 sequence (P51677 1-355): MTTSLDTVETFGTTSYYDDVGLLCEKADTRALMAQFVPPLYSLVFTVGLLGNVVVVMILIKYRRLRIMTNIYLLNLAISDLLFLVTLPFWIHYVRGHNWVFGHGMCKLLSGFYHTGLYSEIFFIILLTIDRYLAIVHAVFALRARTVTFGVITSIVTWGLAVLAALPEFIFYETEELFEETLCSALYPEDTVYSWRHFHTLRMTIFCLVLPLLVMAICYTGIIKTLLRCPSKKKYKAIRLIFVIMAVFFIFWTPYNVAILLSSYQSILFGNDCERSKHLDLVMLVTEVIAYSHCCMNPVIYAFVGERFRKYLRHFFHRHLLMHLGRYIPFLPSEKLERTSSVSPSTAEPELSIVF
Method: [Determination of IC50 Values of Compounds in Receptor Binding Assay]
• Human CCR3-transformed K562 cells were used. The cloned CCR3 cDNA was constructed with pcDNA3 vector and transfected into a IC562 cell line. The human CCR3-transformed K562 cells were maintained in RPMI-1640 (Cat.#22400-089, Life Technologies) supplemented with 10% FCS (Cat.#A-1115-L, Hyclone), 55 μM 2-mercaptoethanol (Cat.#21985-023, Life Technologies), 1 mM sodium pyruvate (Cat.#11360-070, Life Technologies), 100 units/ml of penicillin G and 100 μg/ml of streptomycin (Cat.#15140-122, Life Technologies), and 0.4 mg/ml of Geneticin (Cat.#10131-035, Life Technologies)(hereinafter called “culture medium”). Before the receptor binding assay, cells were pretreated with 5 mM sodium butyrate (Cat.#193-01522, Wako)-containing the culture medium (2×10^5 cells/ml) for 20-24 hours to increase the expression of CCR3. (2) Receptor Binding Assay (RBA) • Butyrate-pretreated cells, suspended in binding buffer (25 mM HEPES pH 7.6, 1 mM CaCl2, 5 mM MgCl2, 0.5% BSA, 0.1% NaN3) at a cell density of 2×10^6 cells/ml, were added into 60 μl/well in the 96-well round bottom polypropylene plate (Cat.#3365, Costar). Compounds, diluted with the binding buffer (4-times higher concentration of the final concentration), were added into 30 μl/well in the polypropylene plate. [^125I]-labeled human eotaxin (Cat.#IM290, Amersham Pharmacia Biotech), diluted with the binding buffer at the concentration of 0.4 nM (final concentration; 0.1 nM), was added into 30 μl/well in the polypropylene plate. Total 120 μl/well of binding reaction mixture (60 μl/well of cell suspension, 30 μl/well of compound solution, and 30 μl/well of [^125I]-labeled eotaxin) were incubated in the polypropylene plate for 1 hour at room temperature after the incubation, 100 μl/well of the reaction mixture was transferred to a filtration plate (Cat.#MAFB-N0B, Millipore), and washed with the washing buffer (25 mM HEPES pH 7.6, 1 mM CaCl2, 5 mM MgCl2, 0.5% BSA, 0.1% NaN3, 0.5 M NaCl) twice. The 96-well filtration plate was pretreated with 100 μl/well of 0.5% polyethylenimine (Cat.#P-3143, Sigma) for 2-4 hours at room temperature and washed with the washing buffer twice before use. The non-specific binding was determined by parallel incubation in the presence of 500 nM of non-labeled eotaxin (Cat.#23209, Genzyme Techne). The radioactivities remained on the filter were measured by liquid scintillation counter (TopCount™, Packard) after an addition of 45 μl/well of scintillant (Microscint20, Cat.#6013621, Packard). The inhibition percent at each concentration of compound was calculated, and IC50 values were determined from the inhibition curve. [Determination of IC50 Values of Compounds in Calcium Mobilization Assay] (IC50 Ca2+) (1) Cell • Human CCR3-transformed K562 cells were used. The human CCR3-transformed K562 cells were maintained in RPMI-1640 supplemented with 10% FCS, 55 μM 2-mercaptoethanol (Cat.#21985-023, Life Technologies), 1 mM sodium pyruvate, 100 units/ml of penicillin G and 100 μg/ml of streptomycin and 0.4 mg/ml of Geneticin. Before the calcium mobilization assay, cells were pretreated with 5 mM sodium butyrate-containing the culture medium (2×10^5 cells/ml) for 20-24 hours to increase the expression of CCR3. (2) Calcium Mobilization Assay • Butyrate-pretreated cells were loaded with Fluo-3AM (Cat.#F-1242, Molecular Probes) in loading buffer (Hanks' solution Cat.#05906 Nissui, 20 mM HEPES pH 7.6, 0.1% BSA, 1 mM probenecid Cat.#P-8761 Sigma, 1 μM Fluo-3AM, 0.01% pluronic F-127 Cat.#P-6866 Molecular Probes) at a cell density of 1×10^7 cells/ml. Then, cells were washed with calcium assay buffer (Hanks' solution Cat.#05906 Nissui, 20 mM HEPES pH 7.6, 0.1% BSA, 1 mM Probenecid Cat.#P-8761 Sigma). The cell suspension (3.3×10^6 cells/ml) was added into 60 μl/well in the 96-well clear bottom black plate (Cat.#3904, Costar). […]

N#Cc1ccc(Oc2cc(Cl)cc(Cl)c2)c(S(=O)(=O)N2CCN3CCCC3C2)c1 (centres unmarked) [Example 13-12]
melting point: 161 °C | IC50 (Human CCR3): < 1000 nM
